Laboratory results reported in patent US6338953B1, “Expression of an exogenous gene in a mammalian cell by use of a non-mammalian DNA virus having an altered coat protein” (The General Hospital Corporation, priority 1996, dated 2002).

What was measured:
HepG2 cells [1] = experiment: Colorimetric (ONPG) β-galactosidase assay of cell extracts; assay type: cell-based, human
Protocol: Adherent cell lines were seeded one day prior to infection. Cells were exposed to virus in 2 ml of medium for 90 minutes, and then the virus-containing medium was removed and replaced with fresh medium. Mock-infected cells were treated with 2 ml medium lacking the viral inoculum.
To measure expression of the reporter gene in the infected cells, colorimetric assays of β-galactosidase enzymatic activity were performed with standard methods (Norton et al., 1985, Molecular & Cellular Biology 5:281-290). Other conventional methods for measuring β-galactosidase activity could be used in lieu of the methods employed in this example. Cell extracts were prepared at one day post-infection. Cell monolayers were rinsed three times with PBS, scraped from the dish, and collected by low-speed centrifugation. The cell pellets were resuspended in 25 mM Tris pH 7.4/0.1 mM EDTA and then subjected to three cycles of freezing in liquid nitrogen and thawing in a 37° C. water bath. The extracts were then clarified by centrifugation at 14,000×g for 5 minutes. Standard conditions for assaying β-galactosidase activity utilized 0.1 ml of cell extract, 0.8 ml of PM-2 buffer, and 0.2 ml of […] (4 mg/ml) in PM-2 buffer for 10 minutes at 37° C. (Norton et al., 1985, Mol. & Cell. Biol. 5:281-290). The reaction was stopped by the addition of 0.5 ml of 1 M sodium carbonate. The amount of substrate hydrolyzed was detected spectrophotometrically at 420 nm, and β-galactosidase enzymatic activity was calculated with conventional methods (Norton et al., 1985, Mol. & Cell. Biol. 5:281-290). The assay was verified to be linear with respect to extract concentration and time. Extract protein concentrations were determined using the Coomassie Plus protein assay (Pierce) with bovine serum albumin as a standard, and the level of β-galactosidase activity was expressed as units of β-galactosidase activity per mg of protein. Other standard protein assays can be used, if desired.
Baculovirus-mediated Gene Transfer is Inhibited by Lysomotropic Agents: To gain insight into the mechanism by which baculoviruses express an exogenous gene in a mammalian cell, the susceptibility of gene expression to a lysomotropic agent was examined. Like other enveloped viruses, the budded form of AcMNPV normally enters cells via endocytosis, followed by low pH-triggered fusion of the viral envelope with the endosomal membrane, thus allowing escape into the cytoplasm (Blissard et al., 1993, J. Virol. 66:6829-6835; Blissard et al., 1990, Ann. Rev. of Entomol. 35:127-155). To determine whether endosome acidification was necessary for baculovirus-mediated gene transfer into mammalian cells, HepG2 cells were infected with RSV-lacZ AcMNPV in the presence of chloroquine, a lysomotropic agent. HepG2 cells were exposed to AcMNPV virus in media containing or lacking inhibitor for 90 minutes, then the virus-containing media were removed and replaced with fresh media containing or lacking inhibitors as listed.
At one day post-infection, the cells were harvested and extracts were assayed for β-galactosidase activity and protein content. Each value in the table represents the average of three independent assays, with the amount of β-galactosidase produced by the RSV-lacZ AcMNPV virus in the absence of inhibitors assigned a value of 100%. β-galactosidase activity was normalized for protein content of each extract. […]

[2] = system: VGZ3-treated mammalian cells; experiment: Inhibition of β-galactosidase expression in VGZ3-treated cells; assay type: cell-based; conditions: data not shown
HepG2 cells [3] = assay type: cell-based, human; conditions: moi 100
Rat Hepatocytes = experiment: Colorimetric (ONPG) β-galactosidase assay of cell extracts; conditions: background subtracted

For `C[C@@H]1C[C@@H]([C@H](O)CC2CC(=O)NC(=O)C2)C(=O)[C@@H](C)C1` [cycloheximide], the “inhibition of accumulation of β-galactosidase enzyme activity” value (HepG2 cells [1]; HepG2 infected with RSV-lacZ virus, drug after infection) was “more than 90%” and the “effect on β-galactosidase expression in VGZ3-treated mammalian cells” value [2] was “inhibited β-galactosidase expression”.
With Albumin the “Promoter strength, Hep G2 −butyrate” value (HepG2 cells [1]; moi 100, 24 hours, mock background subtracted) was 0.0 ± 0.0 Units/mg, the “Promoter strength, Hep G2 +butyrate” value (HepG2 cells [1]; moi 100, sodium butyrate added 2 hours after infection, 24 hours, background subtracted) was 0.08 ± 0.04 Units/mg and the “X-gal staining of cells not treated with butyrate” value (HepG2 cells [3]) was “positively stained cells were detected”. For the same compound, the “Promoter strength, Rat Hepatocytes −butyrate” value (Rat Hepatocytes) was 0.15 ± 0.08 Units/mg.
With `CCN(CC)CCCC(C)Nc1ccnc2cc(Cl)ccc12` (stereo not drawn) [chloroquine] the “effect on de novo expression of β-galactosidase” value (HepG2 cells [1]; 25 μM continuously present during and after exposure to virus) was “completely prevented”, the “effect on β-galactosidase expression” value (HepG2 cells [1]; added 90 minutes after exposure to the virus) was “only partial inhibition” and the “effect on β-galactosidase expression in VGZ3-treated mammalian cells” value [2] was “inhibited β-galactosidase expression”.
